# Source: patent publication US20230248814A1, “COMPOSITIONS AND METHODS FOR TREATING MERKEL CELL CARCINOMA (MCC) USING HLA CLASS I SPECIFIC EPITOPES” (The Broad Institute, Inc., priority 2020, published 2023)
# Entries after “also recorded” stand apart in the source; their conditions may differ.
# Columns and labels:
# USP7 = USP7 (Homo sapiens, UniProt Q93009); conditions: cited from earlier work
# [1] = tested on: advanced hormone refractory prostate cancer patients; conditions: personalized vaccination combined with low dose estramustine; cited from earlier work
# MCC lines [2] = assay: Flow cytometry for HLA-I surface expression in MCC lines after interferon treatment; format: cell-based, human
# Protocol: (§1) Flow cytometry. Cells were dissociated with Versene and incubated with 5 µL Human TruStain FcX (Fc Receptor Blocking Solution; Biolegend # 422302) per million cells in 100 µL at room temperature for 10 min. Fluorophore-conjugated antibodies or respective isotype controls were added and incubated for another 30 min at 4° C. Cells were then washed once with PBS and resuspended in PBS or 4% paraformaldehyde and analyzed on an LSR Fortessa cytometer. For HLA-I and HLA-II detection, the following antibodies were used: HLA-ABC (W6/32 clone) conjugated to PE (BioLegend # 311406), APC (BioLegend # 311410), or AF647 (Santa Cruz Biotechnology # sc32235 AF647), and HLA-DR-FITC (BioLegend # 307604).
# MCC-301 cell line = assay: Flow cytometry assessment of HLA-DR expression after IFN-γ; format: cell-based, human
# Protocol: as §1
# MCC cell lines = assay: HLA-I immunopeptidome (LC-MS/MS) of MCC cell lines at baseline and after IFN-γ; format: cell-based, human; conditions: for increase in abundance of class I bound peptides (median): IFN-γ stimulation
# Protocol: Immunoprecipitation and mass spectrometry analysis, and peptide identification. Up to 40 million or 0.2 g of MCC cells were immunoprecipitated. Briefly, MCC cells were harvested and lysed in ice-cold lysis buffer containing […] (pH 8.0), 1 mM EDTA (pH 8.0), 0.1 M sodium chloride, Triton X-100, 0.06 M octyl β-d-glucopyranoside, 100 U/mL DNAse I, 1 mM phenylmethanesulfonyl fluoride (all from Sigma Aldrich), and protease inhibitor cocktail (Roche Diagnostics). Cell lysate was centrifuged at 12,700 rpm at 4° C. for 22 min. Lysate supernatant was coupled with Gammabind Plus sepharose beads (GE Healthcare) and incubated with 10 µg of HLA-I antibody (Clone W6/32, Santa Cruz Biotechnologies) at 4° C. under rotary agitation for 3 h. After incubation, the lysate-bead-antibody mixture was briefly centrifuged and the supernatant was discarded. Beads were washed with lysis buffer, consisting of wash buffer containing 40 mM Tris (pH 8.0), 1 mM EDTA (pH 8.0), 0.1 M sodium chloride, 0.06 M octyl β-d-glucopyranoside, and 20 mM Tris buffer, without protease inhibitors. Gel loading tips (Fisherbrand) were used to remove as much fluid from beads as possible. Peptides of up to three immunoprecipitations were combined, acid eluted, and analyzed using LC/MS-MS as described previously (35, 82). Briefly, peptides were resuspended in 3% acetonitrile with 5% formic acid and loaded onto an analytical column (20-30 cm with 1.9 µm C18 Reprosil beads, Dr. Maisch HPLC GmbH);, packed in-house). Peptides were eluted in a 6-30% gradient (EasyLC 1000 or 1200, Thermo Fisher Scientific) and analyzed on a QExactive Plus, Fusion Lumos, or Orbitrap Exploris 480 (Thermo Fisher Scientific). For Lumos measurements, peptides were also subjected to fragmentation if they were singly charged. […] Fractions were analyzed on a Fusion Lumos or Orbitrap Exploris 480 equipped with a FAIMSpro interface (83).
# Mass spectra were interpreted using Spectrum Mill software package v7.1 pre-Release (Broad Institute, Cambridge, MA). […] MS/MS spectra were searched against a protein sequence database that contained 90,904 entries, including all UCSC Genome Browser genes with hg19 annotation of the genome and its protein coding transcripts (52,788 entries), common human virus sequences (30,181 entries), recurrently mutated proteins observed in tumors from 26 tissues (4,595 entries), 264 common laboratory contaminants as well as protein sequences containing somatic mutations detected in MCC cell lines (3,076 entries). […]
# MCC lines [3] = assay: RNA-seq of class I antigen presentation genes in MCC lines before and after IFN-γ; format: cell-based, human; conditions: IFN-γ treatment vs baseline
# Protocol: RNA sequencing and analysis. For samples from the MCC tumors and newly generated cell lines, RNA was first assessed for quality using the Agilent Bioanalyzer (DV200 metric). 100 ng of RNA were used as the input for first strand cDNA synthesis using Superscript III reverse transcriptase and Illumina’s TruSeq RNA Access Sample Prep Kit. Synthesis of the second strand of cDNA was followed by indexed adapter ligation with UMI (unique molecular index) adaptors. Subsequent PCR amplification enriched for adapted fragments. Amplified libraries were quantified, normalized, pooled, and hybridized with exome targeting oligos. Following hybridization, bead clean-up, elution, and PCR was performed to prepare library pools for sequencing on Illumina flowcell lanes. Transcriptomes were sequenced to a coverage of at least 50 million reads in pairs.
# Gene counts were obtained from BAM files using featureCounts version 2.0.0 (74). Very lowly expressed genes with average count across samples less than 1 were excluded from analysis. […]
# Differential expression analysis was carried out between IFN-γ plus and minus samples (adjusting for viral status as a covariate) using the negative binomial GLM Wald test of DESeq2, where significance was assessed using the p-values adjusted for multiple comparisons under default settings. […]
# [4] = tested on: ovarian carcinoma patients; conditions: poly-ICLC with NY-ESO-1 peptide vaccine and Montanide; cited from earlier work
# healthy human volunteers = conditions: one single s.c. administration; 8 subjects vs 4 placebo; cited from earlier work
# [5] = tested on: PBMCs from patient MCC-367; assay: IFN-γ ELISpot with autologous PBMCs of patient MCC-367; format: cell-based, human; conditions: 10 ug/ml peptide
# Protocol: ELISpot. Matching patient peripheral blood mononuclear cells (PBMCs) from patient MCC-367 were thawed, and 10^7 cells per well were seeded in 24 well plates overnight. Cells were stimulated with 10 ug/ml of the LT antigen peptide […] (SEQ ID NO:1) (identified in the MCC-367 HLA peptidome, FIG. 3F) in complete DMEM supplemented with 10% Human serum and 20 ng/ml IL-7 (PeproTech). After 3 days of stimulation, cells were supplemented with 20 units/mL IL-2 (PeproTech). After 10 days of stimulation, cells were cytokine deprived overnight. 50,000 cells per well were stimulated in an IFN- γ ELISpot assay with 10 ug/ml of the […] (SEQ ID NO:1) peptide. DMSO and an HIV-GAG peptide were used as negative controls. CEF (Mabtech) and PHA (Sigma Aldrich) were used as positive controls (not shown). ELISpot and T cell culture methods were described in detail previously (23, 86).
# [6] = IFN-γ, 8 IFN-γ-inducible MCC lines
# Chain of USP7 (Q93009 whole entry): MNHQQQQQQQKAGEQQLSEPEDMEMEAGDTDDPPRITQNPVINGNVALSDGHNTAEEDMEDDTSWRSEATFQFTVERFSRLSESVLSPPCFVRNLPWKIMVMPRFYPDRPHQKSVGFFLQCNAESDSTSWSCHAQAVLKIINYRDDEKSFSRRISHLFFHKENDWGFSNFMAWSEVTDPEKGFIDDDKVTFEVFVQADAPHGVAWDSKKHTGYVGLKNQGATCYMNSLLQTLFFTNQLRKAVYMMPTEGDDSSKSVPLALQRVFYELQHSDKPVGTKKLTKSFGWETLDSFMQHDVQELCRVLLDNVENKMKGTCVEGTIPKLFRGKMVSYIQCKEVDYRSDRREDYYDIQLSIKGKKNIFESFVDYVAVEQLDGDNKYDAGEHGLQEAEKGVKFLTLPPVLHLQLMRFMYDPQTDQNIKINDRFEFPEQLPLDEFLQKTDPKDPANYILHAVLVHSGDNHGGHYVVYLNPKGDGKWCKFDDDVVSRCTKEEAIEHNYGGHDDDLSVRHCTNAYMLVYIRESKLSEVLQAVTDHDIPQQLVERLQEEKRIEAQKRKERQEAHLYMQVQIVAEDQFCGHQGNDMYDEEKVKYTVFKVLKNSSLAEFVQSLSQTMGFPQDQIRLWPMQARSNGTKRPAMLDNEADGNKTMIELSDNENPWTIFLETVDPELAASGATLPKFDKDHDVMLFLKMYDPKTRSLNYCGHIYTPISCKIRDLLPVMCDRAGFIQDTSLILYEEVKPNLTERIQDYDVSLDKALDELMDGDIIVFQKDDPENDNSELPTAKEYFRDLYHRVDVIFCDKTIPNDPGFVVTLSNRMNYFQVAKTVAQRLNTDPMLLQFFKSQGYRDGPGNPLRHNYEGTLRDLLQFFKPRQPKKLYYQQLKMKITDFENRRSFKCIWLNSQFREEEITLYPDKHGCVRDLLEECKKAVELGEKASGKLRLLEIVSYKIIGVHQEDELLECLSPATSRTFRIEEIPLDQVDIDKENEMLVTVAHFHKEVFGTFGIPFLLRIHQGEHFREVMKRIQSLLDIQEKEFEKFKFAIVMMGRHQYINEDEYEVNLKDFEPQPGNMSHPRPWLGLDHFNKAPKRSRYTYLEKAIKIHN
molecule,measurement,setting,value
CN1CCN(CCC(=O)Nc2ccc3c(=O)n(CC4(O)CCN(C(=O)[C@H](CCCNC(=O)c5ccc6c(Cl)c7c(nc6c5)CCCC7)Cc5ccccc5)CC4)cnc3c2)CC1 [XL177B],on-target activity,USP7,on-target activity at higher doses
same,potency relative to XL177A (fold less potent),USP7,500 fold
C[C@]12CC[C@@H]3c4ccc(OC(=O)N(CCCl)CCCl)cc4CC[C@H]3[C@@H]1CC[C@@H]2O [estramustine],patients with >50% decrease in serum PSA,[1],54%
IFN-γ: known inducer of HLA-I,HLA-I fold increase in MFI,"MCC lines [2]; IFN-γ exposure, MCC-336, -350, -358",≤ 1.15 fold
same,"HLA I surface expression, fold increase by MFI (median)",MCC lines [2]; [6],5.7 fold
same,"HLA I surface expression, fold increase by MFI (range)",MCC lines [2]; [6],2.5 - 12.4 fold
same,response of HLA I surface expression to IFN-γ exposure,"MCC lines [2]; MCC-336, -350, -358",not responsive
same,HLA-DR expression,MCC-301 cell line,inducible HLA-DR expression; also recorded: upregulated HLA-DR expression
same,increase in abundance of class I bound peptides (median),MCC cell lines; across 4 cell lines,25 fold
same,increase in abundance of class I bound peptides (median),"MCC cell lines; across 7 cell lines, comparable input material",12 fold
same,change in frequencies of peptides mapping to each HLA allele,MCC cell lines; cell lines with vs without IFN-γ,increase in HLA-B-presented peptides
same,class I gene expression (RNA-seq),MCC lines [3],markedly upregulated class I genes; also recorded: markedly upregulated class I gene transcripts
Polyinosinic-Polycytidylic Acid-poly-L-lysine Carboxymethylcellulose [poly-ICLC],patients with induction of CD4+ and CD8+ T cell and antibody responses to the peptide,[4],> 90%
same,differentially expressed genes versus placebo,healthy human volunteers,up to 212 genes
TSDKAIELY,detection of the epitope in the HLA-I peptidome,"MCC cell lines; MCC-367 line, baseline vs IFN-γ",detected only after IFN-γ treatment and not at baseline
same,reactivity of autologous T cells (IFN-γ ELISpot),[5],confirmed reactivity
